For one test, the system named is tau hyperphosphorylation. In words: Okadaic acid induced AD-like tau hyperphosphorylation in rat hippocampal brain slices. It is filed as cell-based. As for the experimental part: Adult male Long-Evans rats were subjected to CO2 anesthesia and sacrificed by decapitation. Brains were rapidly removed (<2 min) and whole hippocampus was dissected using a blunt spatula. Hippocampi were cut into […] slices using a Mcllwain tissue chopper and placed into ice cold low Ca^2+ Krebs-Bicarbonate buffer (pH 7.) of the following composition in mM: NaCl, 124; KCL, 3.33; CaCl2, 0.01; KH2PO4, 1.25; MgSO4, 1.33; nAhco3, 25.7; D-glucose, 10; HEPES, 20. The slices were separated and placed, 5-8 per tube, into 5 mL of low Ca^2+ buffer and incubated for at least 30 min at 33-34° C. with water saturated oxygenation (95% O2, 5% CO2). After 30 min the solution was replaced with buffer containing a physiological level of Ca^2+ (1.3 mM) and incubated for an additional 30 min.
After a total equilibration period of at least 1 hr, the slices were pretreated with vehicle or inhibitor at concentrations ranging from 30 nM to 10 μM for 1 hr, and then exposed to either vehicle or okadaic acid fora 90 min. After treatment, the buffer was removed and the slices were sonicated for 10-20 see in 500 μl of homogenization buffer (100 mM KH2PO4, pH 6.5, 2 mM EGTA, 2 mM EDTA, 1 μM okadaic acid and the following protease inhibitors: aprotinin (10 μg/ml); leupeptin (10 μM); chymostatin (40 μM); PMSF (100 μM) and pepstatin (6 μg/ml).
Following sonication, the samples were centrifuged 16,000×g for 30 min and the supernatants were removed. After boiling of the supernatants for 5 mn at 100° C. the concentration of protein was determined by the BCA assay (Pierce) using BSA as standard and samples were normalized to equal protein concentration.
Aliquots of the heat stable supernatants were separated on 10% SDS-PAGE and Western-blotted with phosphorylation-sensitive tau mAb Tau-1 and PHF-tau mAb AT8 as described for SY5Y studies. Blots were developed by an ECL kit (Amersham Life Science). AT8 immunoreactivity was quantitated on Kodak X0OMAT AR film using a Biorad imaging densitometer GS 670, the strongest signals not exceeding an O.D. of 12.

A further test concerns T1, PKC.
T1 construct: PKC was purified from rat brain using the method of Woodgett J. R. and Hunter T., J. Biol. Chem 262, 4836-4843 (1987)
In words: PKC inhibition assay. The following applies: footnote a) on the CII value: partial inhibition only. It is filed as biochemical, rat. As for the experimental part: Preparation of PKC: PKC was purified from rat brain using the method of Woodgett J. R. and Hunter T., J. Biol. Chem 262, 4836-4843 (1987).
PKC was assayed in 50μ 25 mM HEPES, pH 7.0, 10 mM MgCl2, 2 mM CaCl2, 1 mM EDTA, 1 mM DTT, 0.25 mM ATP, 0.2 mg/mL phosphatidylserine, using 20 ng PKC and 0.08 mg/mL histone III-S as a substrate.
(§1) Enzyme, substrate and inhibitor were preincubated for 5-10 min at 4° C. in assay buffers containing a final concentration of 2% DMSO before initiating the reaction with 0.25 mM γ^2P-ATP. Samples were incubated for 30 min at 37° C. and reactions were terminated with 10% trichloracetic acid/2% sodium pyrophosphate (TCA/PPA), followed by filtration over a glass fiber filtermat (type A) with a cell harvester (Tomtec). The filtermats were washed twice for several hours with TCA/PPA until all background radioactivity was removed. Precipitable counts were quantitated directly on the filtermat with a microbeta scintillation counter system (Wallac-Pharmacia). Inhibitor data were subjected to curve fitting and IC50 values were calculated from these curves using the GraphIt program.

For another test, the target named is T2, cdc2 kinase (Homo sapiens, UniProt P06493).
T2 construct: Human cdc2 kinase was prepared from nocodazole-arrested HeLa cells; endogenous in cells; host or cells: nocodazole-arrested HeLa cells
T2 sequence (P06493 whole entry): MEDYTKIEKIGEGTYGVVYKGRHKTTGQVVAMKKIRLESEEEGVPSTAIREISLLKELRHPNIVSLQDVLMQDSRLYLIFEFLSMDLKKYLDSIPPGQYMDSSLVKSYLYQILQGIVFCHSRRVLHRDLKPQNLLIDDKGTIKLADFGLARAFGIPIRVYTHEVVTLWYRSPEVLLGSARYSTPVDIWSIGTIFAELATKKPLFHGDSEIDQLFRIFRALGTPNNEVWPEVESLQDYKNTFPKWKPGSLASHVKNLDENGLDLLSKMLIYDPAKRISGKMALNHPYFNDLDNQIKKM
T2 sequence (P14635 whole entry partner): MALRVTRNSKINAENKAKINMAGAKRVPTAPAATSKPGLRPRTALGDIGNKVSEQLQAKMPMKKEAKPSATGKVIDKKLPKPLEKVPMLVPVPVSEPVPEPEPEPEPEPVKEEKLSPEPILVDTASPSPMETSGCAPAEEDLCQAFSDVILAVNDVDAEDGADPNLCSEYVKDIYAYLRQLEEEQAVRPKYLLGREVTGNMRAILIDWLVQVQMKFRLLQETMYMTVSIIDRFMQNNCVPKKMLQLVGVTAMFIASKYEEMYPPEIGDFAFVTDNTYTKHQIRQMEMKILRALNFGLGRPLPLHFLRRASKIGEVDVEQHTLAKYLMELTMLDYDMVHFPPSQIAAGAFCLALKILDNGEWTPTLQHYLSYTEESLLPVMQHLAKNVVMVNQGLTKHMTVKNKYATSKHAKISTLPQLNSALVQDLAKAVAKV
In words: cdc2 kinase inhibition assay. The test is classed as biochemical. The following applies: 0.25 mM ATP, human recombinant tau substrate. As for the experimental part: Preparation of cdc2 Kinase: Human cdc2 kinase was prepared from nocodazole-arrested HeLa cells according to Marshak D. M. er al., J. Cell Biochem., 45, 391-400 (1991).
cdc2 kinase was assayed in 50 μl 25 mM HEPES, pH 7.0, 1 mM Mg^2+, 0.25 mM ATP (150-300 cpm/pmole), 1 mM DTT, using 0.5 ng cdc2 kinase, 5 μg human recombinant tau as substrate, and 0.1 mg/mL BSA a as carrier.
as §1

The mark [1] stands for this setting: adult rat hippocampal slices, means of triplicate determinations, read-out: Inhibition of tau hyperphos. in brain slices IC50.

Structures are written as SMILES. pIC50: −log10 of the molar value. Where two headings read alike, the source gives them in different places.

As a reminder, the pIC50 is the negative decadic logarithm of the IC50, by convention in mol/L.

Take `COC(=O)[C@@]1(O)C[C@H]2C[C@@H]1n1c3ccccc3c3c4c(c5c6ccccc6n2c5c31)C(=O)NC4=O` (relative stereo) [CIII, 9,12-Methano-1H-diindolo[1,2,3-fg:3′,2′,1′-kl]pyrrolo[3,4-I][1,6] benzodiazocine-10-carboxylic acid, 2,3,9,10,11,12-hexahydro-10-hydroxy-1,3-dioxomethyl ester, (9α,10β,12α)]: the pIC50 in the test on tau hyperphosphorylation (setting [1]) was 6.05; with PKC it was less than 4.00; at cdc2 kinase it was 5.42.

For the compound `CNC(=O)[C@]1(O)CC2CC1n1c3ccccc3c3c4c(c5c6ccccc6n2c5c31)C(=O)NC4=O` (stereo partly drawn) [CII, 9,12-Methano-1H-diindolo[1,2,3-fg:3′,2′,1′-kl]pyrrolo[3,4-I][1,6] benzodiazocine-10-carboxamide, 2,3,9,10,11,12-hexahydro-10-hydroxy-N-methyl-1,3-dioxo-(9α,10β,12α)], the pIC50 in the test on tau hyperphosphorylation (adult rat hippocampal brain slices, FIG. 5, read-out: IC50 for prevention of tau hyperphosphorylation in brain slices) was 7.00; in the test with tau hyperphosphorylation (setting [1]) it was 6.74; in the test on PKC, 6.19; on cdc2 kinase, 7.36.

The values are drawn from patent publication US6541468B1, “Indolocarbazole derivatives useful for the treatment of neurodegenerative diseases and cancer” (Bayer Corporation, priority 1998, dated 2003).
